# Results: US20240140933A1, “OXOINDOLINE COMPOUND FOR THE TREATMENT OF INFLAMMATORY DISEASES OR CANCER” (Hoffmann-La Roche Inc., priority 2021, published 2024)
# Target: PDHK1 (Homo sapiens (Human), UniProt Q15118)
# Assay: PDHK1 enzymatic assay (AlphaScreen, phosphorylation of PDHE1 S293)
# Assay type: biochemical
# Conditions: 1 nM PDHK1, 25 nM PDHE1, 20 μM ATP, 30° C. for 45 minutes
# Excerpt: Pyruvate dehydrogenase complex (PDHc) is an enzyme that catalyzes the reaction of pyruvate and a lipoamide to give the acetylated dihydrolipoamide and carbon dioxide. PDHc has three subunits E1, E2 and E3. E1 has 3 serine phosphorylation sites S293, S232, S300. If E1 was phosphorylated, PDH will be inactivated. PDHK can phosphorylate PDH protein (also named PDHE1) in PDH complex (PDC) to inactivate it.
# PDHK1, sequence (Q15118 29-436): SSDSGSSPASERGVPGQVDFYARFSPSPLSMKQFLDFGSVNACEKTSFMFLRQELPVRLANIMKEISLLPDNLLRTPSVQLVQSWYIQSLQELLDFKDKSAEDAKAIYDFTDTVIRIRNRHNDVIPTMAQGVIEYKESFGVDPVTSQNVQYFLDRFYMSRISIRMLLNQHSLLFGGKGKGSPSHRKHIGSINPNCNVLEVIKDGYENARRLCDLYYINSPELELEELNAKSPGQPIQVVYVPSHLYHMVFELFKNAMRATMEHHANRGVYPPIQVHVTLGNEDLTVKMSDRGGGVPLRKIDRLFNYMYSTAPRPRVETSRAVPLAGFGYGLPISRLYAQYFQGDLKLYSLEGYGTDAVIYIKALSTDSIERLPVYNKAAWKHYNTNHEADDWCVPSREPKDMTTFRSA
row,Enzymatic IC50 against PDHK1,Structure (SMILES)
1,0.017 µg/mL,"CCNc1cc(F)cc2c1NC(=O)C2(C)N1CC[C@@H](O)[C@@H](Nc2ccc(C#N)nc2)C1 (stereo partly drawn) [Example 51, 5-[[(3S,4R)-1-[7-(ethylamino)-5-fluoro-3-methyl-2-oxo-indolin-3-yl]-4-hydroxy-3-piperidyl]amino]pyridine-2-carbonitrile]"
2,0.037 µg/mL,"CCNc1cc(F)cc2c1NC(=O)C2(C)N1CCC[C@@H](Nc2ccc(O)nc2)C1 (stereo partly drawn) [Example 21, 7-(ethylamino)-5-fluoro-3-[(3R)-3-[(6-hydroxy-3-pyridyl)amino]-1-piperidyl]-3-methyl-indolin-2-one]"
3,0.020 µg/mL,"CCNc1cc(F)cc2c1NC(=O)C2(C)N1CC[C@H](c2ccccc2)[C@@H](NC(C)=O)C1 (stereo partly drawn) [Example 52, N-[(3R,4R)-1-[7-(ethylamino)-5-fluoro-3-methyl-2-oxo-indolin-3-yl]-4-phenyl-3-piperidyl]acetamide]"
4,0.025 µg/mL,"CCNc1cc(F)cc2c1NC(=O)C2(C)N1CC[C@H](F)[C@@H](Nc2ccc(C#N)nc2)C1 (stereo partly drawn) [Example 48, 5-[[(3S,4S)-1-[7-(ethylamino)-5-fluoro-3-methyl-2-oxo-indolin-3-yl]-4-fluoro-3-piperidyl]amino]pyridine-2-carbonitrile]"
5,0.059 µg/mL,"CCNc1cc(F)cc2c1NC(=O)C2(C)N1CCC[C@@H](Nc2ccc(CO)nc2)C1 (stereo partly drawn) [Example 18, 7-(ethylamino)-5-fluoro-3-[(3R)-3-[[6-(hydroxymethyl)-3-pyridyl]amino]-1-piperidyl]-3-methyl-indolin-2-one]"
6,0.015 µg/mL,"C=CS(=O)(=O)N[C@H]1CN(C2(C)C(=O)Nc3c(NCC)cc(F)cc32)CC[C@@H]1c1ccccc1 (stereo partly drawn) [Example 53, N-[(3R,4R)-1-[7-(ethylamino)-5-fluoro-3-methyl-2-oxo-indolin-3-yl]-4-phenyl-3-piperidyl]ethenesulfonamide]"
7,0.014 µg/mL,"CCNc1cc(F)cc2c1NC(=O)C2(C)N1CC[C@H](O)[C@@H](Nc2ccc(C#N)nc2)C1 (stereo partly drawn) [Example 50, 5-[[(3S,4S)-1-[7-(ethylamino)-5-fluoro-3-methyl-2-oxo-indolin-3-yl]-4-hydroxy-3-piperidyl]amino]pyridine-2-carbonitrile]"
8,0.038 µg/mL,"CCNc1cc(F)cc2c1NC(=O)C2(C)N1CCC[C@@H](Nc2ccc(S(C)(=O)=O)nc2)C1 (stereo partly drawn) [Example 20, 7-(ethylamino)-5-fluoro-3-methyl-3-[(3R)-3-[(6-methylsulfonyl-3-pyridyl)amino]-1-piperidyl]indolin-2-one]"
9,0.024 µg/mL,"CCNc1cc(F)cc2c1NC(=O)C2(C)N1CCC[C@@H](Nc2cnc(C#N)c(Cl)c2)C1 (stereo partly drawn) [Example 22, 3-chloro-5-[[(3R)-1-[7-(ethylamino)-5-fluoro-3-methyl-2-oxo-indolin-3-yl]-3-piperidyl]amino]pyridine-2-carbonitrile]"
10,0.022 µg/mL,"CCNc1cc(F)cc2c1NC(=O)C2(C)N1CCC[C@@H](Nc2ccc(C#N)cc2)C1 (stereo partly drawn) [Example 8, 4-[[(3R)-1-[7-(ethylamino)-5-fluoro-3-methyl-2-oxo-indolin-3-yl]-3-piperidyl]amino]benzonitrile]"
11,0.015 µg/mL,"CCNc1cc(F)cc2c1NC(=O)C2(C)N1CCC[C@@H](Nc2ccc(C#N)c(O)c2)C1 (stereo partly drawn) [Example 9, 4-[[(3R)-1-[7-(ethylamino)-5-fluoro-3-methyl-2-oxo-indolin-3-yl]-3-piperidyl]amino]-2-hydroxy-benzonitrile]"
12,0.032 µg/mL,"C=CS(=O)(=O)c1ccc(N[C@@H]2CCCN(C3(C)C(=O)Nc4c(NCC)cc(F)cc43)C2)cc1 (stereo partly drawn) [Example 34, 7-(ethylamino)-5-fluoro-3-methyl-3-[(3R)-3-(4-vinylsulfonylanilino)-1-piperidyl]indolin-2-one]"
13,0.03 µg/mL,"CCNc1cc(F)cc2c1NC(=O)C2(C)N1CC[C@H](c2ccccc2Oc2ccc(C#N)cc2)[C@@H](NC(C)=O)C1 (stereo partly drawn) [Example 58, N-[(3R,4R)-4-[2-(4-cyanophenoxy)phenyl]-1-[7-(ethylamino)-5-fluoro-3-methyl-2-oxo-indolin-3-yl]-3-piperidyl]acetamide]"
14,0.046 µg/mL,"CCNc1cc(F)cc2c1NC(=O)C2(C)N1CCC[C@@H](Cc2ccc(C(=O)O)cc2)C1 (stereo partly drawn) [Example 5, 4-[[(3S)-1-[7-(ethylamino)-5-fluoro-3-methyl-2-oxo-indolin-3-yl]-3-piperidyl]methyl]benzoic acid]"
15,0.037 µg/mL,"CCNc1cc(F)cc2c1NC(=O)C2(C)N1CC[C@H](c2ccccc2)[C@@H](Nc2ccc(C#N)nc2)C1 (stereo partly drawn) [Example 55, 5-[[(3R,4R)-1-[7-(ethylamino)-5-fluoro-3-methyl-2-oxo-indolin-3-yl]-4-phenyl-3-piperidyl]amino]pyridine-2-carbonitrile]"
16,0.012 µg/mL,"CCNc1cc(F)cc2c1NC(=O)C2(C)N1CCC[C@@H](Nc2cnc(C#N)nc2)C1 (stereo partly drawn) [Example 17, 5-[[(3R)-1-[7-(ethylamino)-5-fluoro-3-methyl-2-oxo-indolin-3-yl]-3-piperidyl]amino]pyrimidine-2-carbonitrile]"
17,0.016 µg/mL,"CCNc1cc(F)cc2c1NC(=O)C2(C)N1CCC[C@@H](Nc2ccc(C(=O)CO)cc2)C1 (stereo partly drawn) [Example 19, 7-(ethylamino)-5-fluoro-3-[(3R)-3-[4-(2-hydroxyacetyl)anilino]-1-piperidyl]-3-methyl-indolin-2-one]"
18,0.047 µg/mL,"CCNc1cc(F)cc2c1NC(=O)C2(C)N1CCC[C@@H](NC(=O)C2CCS(=O)(=O)CC2)C1 (stereo partly drawn) [Example 36, N-[(3R)-1-[7-(ethylamino)-5-fluoro-3-methyl-2-oxo-indolin-3-yl]-3-piperidyl]-1,1-dioxo-thiane-4-carboxamide]"
19,0.011 µg/mL,"CCNc1cc(F)cc2c1NC(=O)C2(C)N1C[C@H](F)C[C@@H](Nc2ccc(C#N)nc2)C1 (stereo partly drawn) [Example 45, 5-[[(3R,5R)-1-[7-(ethylamino)-5-fluoro-3-methyl-2-oxo-indolin-3-yl]-5-fluoro-3-piperidyl]amino]pyridine-2-carbonitrile]"
20,0.049 µg/mL,"CCNc1cc(F)cc2c1NC(=O)C2(C)N1CCC[C@@](C)(Nc2ccc(C#N)nc2)C1 (stereo partly drawn) [Example 23, 5-[[(3R)-1-[7-(ethylamino)-5-fluoro-3-methyl-2-oxo-indolin-3-yl]-3-methyl-3-piperidyl]amino]pyridine-2-carbonitrile]"
21,0.032 µg/mL,"C=CC(=O)N1CC2(CC(C(=O)N[C@@H]3CCCN(C4(C)C(=O)Nc5c(NCC)cc(F)cc54)C3)C2)C1 (stereo partly drawn) [Example 41, N-[(3R)-1-[7-(ethylamino)-5-fluoro-3-methyl-2-oxo-indolin-3-yl]-3-piperidyl]-2-prop-2-enoyl-2-azaspiro[3.3]heptane-6-carboxamide]"

row,Structure (SMILES),Enzymatic IC50 against PDHK1
1,"CCNc1cc(F)cc2c1NC(=O)C2(C)N1CCC[C@@H](Nc2ccc(OS(=O)(=O)F)cc2)C1 (stereo partly drawn) [Example 32, 7-(ethylamino)-5-fluoro-3-methyl-2-oxo-3-[(3R)-3-(4-fluorosulfonyloxyanilino)-1-piperidyl]indoline]",0.135 µg/mL
2,"CCNc1cc(F)cc2c1NC(=O)C2(C)N1CCC[C@@H](Nc2ccc(S(=O)(=O)F)cn2)C1 (stereo partly drawn) [Example 29, 6-[[(3R)-1-[7-(ethylamino)-5-fluoro-3-methyl-2-oxo-indolin-3-yl]-3-piperidyl]amino]pyridine-3-sulfonyl fluoride]",0.035 µg/mL
3,"CCNc1cc(F)cc2c1NC(=O)C2(C)N1CCC[C@@H](Nc2cc(C)c(S(=O)(=O)F)cn2)C1 (stereo partly drawn) [Example 30, 4-methyl-6-[[(3R)-1-[7-(ethylamino)-5-fluoro-3-methyl-2-oxo-indolin-3-yl]-3-piperidyl]amino]pyridine-3-sulfonyl fluoride]",0.065 µg/mL
4,"CCNc1cc(F)cc2c1NC(=O)[C@]2(C)N1CCC[C@@H](Oc2ccc(S(=O)(=O)F)cc2)C1 [Example 3A, 4-[[(3R)-1-[(3R)-7-(ethylamino)-5-fluoro-3-methyl-2-oxo-indolin-3-yl]-3-piperidyl]oxy]benzenesulfonyl fluoride]",0.036 µg/mL
5,"CCNc1cc(F)cc2c1NC(=O)C2(C)N1CCC[C@@H](Nc2ccc(S(=O)(=O)F)c(OC)c2)C1 (stereo partly drawn) [Example 28, 4-[[(3R)-1-[7-(ethylamino)-5-fluoro-3-methyl-2-oxo-indolin-3-yl]-3-piperidyl]amino]-2-methoxy-benzenesulfonyl fluoride]",0.032 µg/mL

# Same assay, conditions: 1 nM PDHK1, 25 nM PDHE1, 20 μM ATP, 30° C. for 45 minutes; read-out: Enzymatic IC50 against PDHK1 (converted)
row,IC50,Structure (SMILES)
1,47.3 nM,"CCNc1cc(F)cc2c1NC(=O)[C@@]2(C)N1CC[C@@H](c2ccccc2)[C@@H](C(=O)Nc2ccccc2)C1 [Example 61B, (3R,4R)-1-[(3S)-7-(ethylamino)-5-fluoro-3-methyl-2-oxo-indolin-3-yl]-N,4-diphenyl-piperidine-3-carboxamide]"
2,75.9 nM,"CCNc1cc(F)cc2c1NC(=O)[C@@]2(C)N1CC[C@@H](c2ccccc2)[C@@H](C(=O)NCc2ccccc2)C1 [Example 62B, (3R,4R)-N-benzyl-1-[(3S)-7-(ethylamino)-5-fluoro-3-methyl-2-oxo-indolin-3-yl]-4-phenyl-piperidine-3-carboxamide]"
3,17.1 nM,"CCNc1cc(F)cc2c1NC(=O)[C@@]2(C)N1CC[C@@H](c2ccccc2)[C@@H](C(N)=O)C1 [Example 59B, (3R,4R)-1-[(3S)-7-(ethylamino)-5-fluoro-3-methyl-2-oxo-indolin-3-yl]-4-phenyl-piperidine-3-carboxamide]"

row,Structure (SMILES),IC50
1,"CCNc1cc(F)cc2c1NC(=O)[C@@]2(C)N1CCC[C@@H](Oc2ccc(S(=O)(=O)F)c(OC)c2)C1 [Example 4B, 4-[[(3R)-1-[(3S)-7-(ethylamino)-5-fluoro-3-methyl-2-oxo-indolin-3-yl]-3-piperidyl]oxy]-2-methoxy-benzenesulfonyl fluoride]",109 nM
